In PMC5482315 (Biochimica et Biophysica Acta, 2017):
Where two headings read alike, the source gives them in different places.

Tests used:
VanSA [1] = biological target: T1, VanSA (Enterococcus faecium, UniProt Q06240); experiment: thermal denaturation of VanSA by far-UV CD (melting temperature); type: binding, Enterococcus faecium BM4147; settings: 5-fold molar equivalent of ligand; for Melting temperature (Tm) of VanSA in the presence of screened ligands: monitored at 222 nm, 20–95 °C in 5 °C increments, 10 mM Tris–HCl pH 8.0 ligand stocks, 30 min at 20 °C, VanSA alone 44 ± 0.71
T1 sequence (Q06240 whole entry): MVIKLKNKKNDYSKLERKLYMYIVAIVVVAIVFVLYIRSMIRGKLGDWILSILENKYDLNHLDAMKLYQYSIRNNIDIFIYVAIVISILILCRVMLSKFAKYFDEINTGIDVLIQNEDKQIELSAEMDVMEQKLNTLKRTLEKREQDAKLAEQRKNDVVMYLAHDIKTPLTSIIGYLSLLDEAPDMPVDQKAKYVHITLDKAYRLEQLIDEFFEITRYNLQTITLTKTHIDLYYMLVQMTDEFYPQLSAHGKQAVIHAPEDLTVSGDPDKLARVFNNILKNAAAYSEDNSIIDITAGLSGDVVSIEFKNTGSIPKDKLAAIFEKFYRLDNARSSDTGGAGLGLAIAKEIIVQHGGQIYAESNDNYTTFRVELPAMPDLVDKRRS
Experimental: (§1) Ligand-containing samples were performed by addition of 5-fold molar equivalent of ligand stocks in 10 mM Tris–HCl pH 8.0 (control incubated with equivalent volume of 10 mM Tris–HCl pH 8.0). All samples were incubated at 20 °C for 30 min prior to data collection. All data was analysed using CDApps where the mean residue weight of VanSA was taken to be 113. Unless otherwise stated, all spectra presented are difference spectra where all relevant background buffers, ligands etc. have been subtracted. Data acquired when the HT of the detector (PMT) was equal to or > 600 V were excluded from the analyses. Far-UV measurements (180–260 nm) were commonly collected using 0.5 mg/ml of VanSA with bandwidth of 1 nm and 1 s integration time. Data presented in molar extinction (Δε). Temperature denaturation measurements were collected over the temperatures (20 °C–95 °C, in 5 °C increments) in the absence and presence of ligands. Samples were incubated at the initial 20 °C for 30 min after ligand or solvent addition prior to data acquisition. At each temperature step, reactions were incubated for 2 min prior to data collection (1 scan). A final scan was acquired post-temperature ramp after returning to 20 °C and incubation for 20 min before data acquisition. Data was analysed using CDApps to obtain difference spectra where all controls (buffers, ligands, etc.) had been subtracted. Change in CD (mdeg) at a specific wavelength was transferred to OriginPro® 9 and plotted against the corresponding temperature for fitting using Gibbs-Helmholtz equation derived from Boltzmann distribution, [65] sigmoidal two-state denaturation curve to a Boltzmann distribution and the expression modified to include parameters for fitting of thermal denaturation data for the calculation of the melting temperature (Tm).

VanSA [2] = biological target: T1, VanSA; experiment: near-UV CD titration of VanSA with ligand (binding constant); set-up: species or system Enterococcus faecium BM4147
Experimental: as §1
Near-UV measurements (260–350 nm) were collected using 1 mg/ml of protein using 10 mm pathlength cell, 2 nm bandwidth, 1 nm increments and 1 s integration. Titration experiments were conducted as described for standard near-UV measurements, with the modification of measurements collected after the addition of incremental volumes of ligand stock as described previously, [70]. Change in CD (mdeg) a specific wavelength was monitored, the values transferred to OriginPro® and plotted against respective ligand concentration (M) and fitted with a hill1 binding or biphasic dose response function to determine the kd for binding.

VanSA [3] = biological target: T1, VanSA; experiment: VanSA autophosphorylation activity assay (Universal Kinase Activity Kit); type: biochemical, Enterococcus faecium BM4147; settings: n = 3, result in words; for activity of VanSA (autophosphorylation): 5-fold molar equivalent of ligand, 20 min pre-incubation, 40 min with ATP, 25 mM HEPES pH 8.0, OD620 malachite green; for phosphorylation states of VanSA (activity profile): activity profile over 40 min
Experimental: Assays were conducted as per the instructions provided in the R&D Systems Universal Kinase Activity Kit (Catalogue # EA004, R&D), changing the pH to 8.0; therefore all assays were conducted in 25 mM HEPES pH 8.0, 150 mM NaCl, 10 mM MgCl2, and 10 mM CaCl2. Compatibility checks for the activity of CD39L2 were made in the new conditions. A phosphate standard curve in the new assay conditions was used to determine the conversion factor (CF) for CD39L2 by calculating the slope of OD620 × phosphate input (KH2PO4). This CF was used in later calculations to determine the amount of PO4^2 − produced in later experiments. For ligand screens, VanSA (0.2 μg) was incubated in the absence and presence of 5-fold molar equivalent of ligands for 20 min prior to the initiation of autophosphorylation by the addition of ATP; after which autophosphorylation was allowed to proceed for 40 min before reactions were stopped by the addition of 30 μl Malachite Green Reagent A (ammonium molybdate in 3 M sulphuric acid) at t = 60. 100 μl distilled H2O was added to each well, followed by 30 μl of Malachite Reagent B (malachite green oxalate and polyvinyl alcohol) and the colour allowed to develop for 20 min before determining the optical density at 620 nm.

VanSA [4] = biological target: T1, VanSA; experiment: near-UV CD ligand binding screen of VanSA; set-up: species or system Enterococcus faecium BM4147; settings: 5-fold molar equivalent of ligand, qualitative
Experimental: Ligand-containing samples were performed by addition of 5-fold molar equivalent of ligand stocks in 10 mM Tris–HCl pH 8.0 (control incubated with equivalent volume of 10 mM Tris–HCl pH 8.0). All samples were incubated at 20 °C for 30 min prior to data collection. All data was analysed using CDApps where the mean residue weight of VanSA was taken to be 113. Unless otherwise stated, all spectra presented are difference spectra where all relevant background buffers, ligands etc. have been subtracted. Data acquired when the HT of the detector (PMT) was equal to or > 600 V were excluded from the analyses. Far-UV measurements (180–260 nm) were commonly collected using 0.5 mg/ml of VanSA with bandwidth of 1 nm and 1 s integration time. Data presented in molar extinction (Δε). […] Data was analysed using CDApps to obtain difference spectra where all controls (buffers, ligands, etc.) had been subtracted. […]
Near-UV measurements (260–350 nm) were collected using 1 mg/ml of protein using 10 mm pathlength cell, 2 nm bandwidth, 1 nm increments and 1 s integration. […] Change in CD (mdeg) a specific wavelength was monitored, the values transferred to OriginPro® and plotted against respective ligand concentration (M) and fitted with a hill1 binding or biphasic dose response function to determine the kd for binding.

[5] = cited from earlier work; for Kd: surface plasmon resonance and other studies, read-out: kd for vancomycin binding
Description: Using model cell wall precursor peptides such as N-acetyl-D-Ala-D-Ala, binding studies in aqueous solution have established that for many glycopeptides, the formation of entropically favourable asymmetric, back-to-back homodimers of the antibiotic, [11], [12] is mediated by sugar-sugar recognition, [13].

VanSA [6] = biological target: T1, VanSA; experiment: fluorescence emission of VanSA Trp residues with antibiotics; type: binding, Enterococcus faecium BM4147; settings: excitation 295 nm, equivalent ratio 1:7, 23 °C; n = 3; VanSA alone λmax 334 nm (blue shift)
Experimental: Fluorescence spectroscopy was carried out using a Chirascan-Plus CD Spectrometer (Applied Photophysics) using 1 cm pathlength cell (1 cm × 1 cm, 4 mm × 4 mm window) at 23 °C, 5 nm bandwidth and 600 V, 295 nm excitation wavelength to excite the VanSA Trp residues was applied to the sample and emission monitored between 300 and 500 nm in 1 nm increments. Samples incubated at 20 °C for 30 min prior to data collection.
Data analysis performed using CDApps to obtain values which have been buffer subtracted and dilution-corrected for all components (F values) (protein only, ligand only, protein-ligand). Fo values were determined by normalisation to the initial value for each condition, followed by calculation of F/Fo using OriginPro® 9. Standard deviation (n = 3) shown by error bars.

VanSsc = system: VanSsc; set-up: method as in PMID 20383152; settings: result in words; cited from earlier work
Description: The nature of the activating inducer for VanA-type resistance remains unknown. […] Other proposed ligands include the antibiotic-peptidoglycan precursor complex and the accumulating peptidoglycan precursors as a result of vancomycin mode of action, [54]. Here, we describe the use of in vitro approaches to further characterise the ligand-induced activities of VanSA. || Previous studies identified a 4-amino-acid motif (DQGW) from the predicted extracellular binding region of VanSsc (equivalent to the type B VanS receptor in soil actinomycetes) to which a modified vancomycin photoaffinity probe bound.

| Compound | Melting temperature (Tm) of VanSA in the presence of screened ligands (VanSA [1]) [°C] | binding mechanism (VanSA [2]; near-UV CD titration) | activity of VanSA (autophosphorylation) (VanSA [3]) | phosphorylation states of VanSA (activity profile) (VanSA [3]) | changes in local tertiary structure (tyrosine/tryptophan region) (VanSA [4]) | fluorescence emission λmax of VanSA upon addition of antibiotic (VanSA [6]) [nm] | also measured |
| --- | --- | --- | --- | --- | --- | --- | --- |
| D-Ala-D-Ala | 48 ± 4.07 |  |  |  |  |  |  |
| teicoplanin | 47 ± 5.08 | two-step mechanism | significant increases in the activity | quicker, longer-lived phosphorylation states | changes to the tyrosine/tryptophan region | 329 | Hill coefficient (VanSA [2]; near-UV CD titration, Bi Dose Response function, two-step, first value): 0.97 ± 0.77; Hill coefficient (VanSA [2]; near-UV CD titration, Bi Dose Response function, two-step, second value): 0.977 ± 0.76; Kd (VanSA [2]; near-UV CD titration, change in CD (mdeg) at 292 nm, BidoseResponse function, two-step mechanism, first value printed in picture, VanSA 1 mg/ml, n = 4, read-out: Binding constant (kd)): 170 µM; Kd (VanSA [2]; near-UV CD titration, change in CD (mdeg) at 292 nm, BidoseResponse function, two-step mechanism, second value printed in picture, VanSA 1 mg/ml, n = 4, read-out: Binding constant (kd)): 30 µM; potency compared with vancomycin ([5]; in vitro and in vivo, result in words): greater potency than vancomycin |
| CC(=O)N[C@@H]1[C@@H](O)[C@H](O)[C@@H](CO)O[C@H]1O [N-acetylglucosamine, N-Acetyl-D-glucosamine] |  |  | decreases in activity |  |  |  |  |
| CN[C@H](CC(C)C)C(=O)N[C@H]1C(=O)N[C@@H](CC(N)=O)C(=O)N[C@H]2C(=O)N[C@H]3C(=O)N[C@H](C(=O)N[C@H](C(=O)O)c4cc(O)cc(O)c4-c4cc3ccc4O)[C@H](O)c3ccc(c(Cl)c3)Oc3cc2cc(c3O[C@@H]2O[C@H](CO)[C@@H](O)[C@H](O)[C@H]2O[C@H]2C[C@](C)(N)[C@H](O)[C@H](C)O2)Oc2ccc(cc2Cl)[C@H]1O [vancomycin] | 79 ± 4.04 | one-step process of moderate affinity | significant increases in the activity | quicker, longer-lived phosphorylation states | changes to the tyrosine/tryptophan region | 328 | thermal stability of VanSA (VanSA [1]; far-UV thermal denaturation, result in words): significant increase of the thermal stability; Kd (VanSA [2]): 70 µM; Hill coefficient (VanSA [2]; near-UV CD titration, Hill 1 function): 1.65 ± 0.84; binding to VanS of actinomycetes (VanSsc): shown to bind in type A equivalent systems of actinomycetes; Kd ([5]; ref 17): 1320 nM; Kd ([5]; ref 18): 2700 nM; Kd ([5]; ref 19): 3390 nM |
| Ala-D-γ-Glu-Lys-D-Ala-D-Ala [peptidoglycan component] | 51 ± 3.23 |  |  |  |  |  |  |
| CC(=O)N[C@H]1C(O)O[C@H](CO)[C@@H](O)[C@@H]1O[C@H](C)C(=O)O (some centres unmarked) [N-acetylmuramic acid, N-Acetylmuramic acid] | 44 ± 0.63 |  | decreases in activity |  |  |  |  |
